Laboratory results: patent publication US20230365571A1, “COMPOUNDS AND COMPOSITIONS AS Sppl2a INHIBITORS” (Novartis AG, priority 2020, published 2023)

What was measured:
human SPPL2a [1] = target: T1, human SPPL2a (Homo sapiens, UniProt Q8TCT8); assay: Sppl2a TL (translocation) imaging assay in U-2 OS cells; format: cell-based; set-up: expressed in transfected cells; settings: U-2 OS cells expressing human SPPL2a and EGFP-TNFα(aa1-76) NTF substrate; 24 h
T1 sequence (Q8TCT8 26-520): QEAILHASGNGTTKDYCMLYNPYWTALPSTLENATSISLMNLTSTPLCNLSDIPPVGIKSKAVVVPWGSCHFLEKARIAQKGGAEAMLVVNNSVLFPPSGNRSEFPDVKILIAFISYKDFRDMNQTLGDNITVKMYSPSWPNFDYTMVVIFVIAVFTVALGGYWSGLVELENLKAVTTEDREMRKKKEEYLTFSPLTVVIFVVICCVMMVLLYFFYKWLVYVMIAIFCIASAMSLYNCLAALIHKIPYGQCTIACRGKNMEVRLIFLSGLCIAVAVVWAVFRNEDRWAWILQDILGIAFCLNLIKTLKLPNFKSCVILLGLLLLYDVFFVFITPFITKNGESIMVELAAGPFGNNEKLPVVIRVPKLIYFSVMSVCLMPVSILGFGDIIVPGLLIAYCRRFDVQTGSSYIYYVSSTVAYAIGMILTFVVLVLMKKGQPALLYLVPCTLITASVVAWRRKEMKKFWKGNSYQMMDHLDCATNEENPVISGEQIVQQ
Description: SPPL2a, TL in U-2 OS Cells. Stable U-2 OS cell lines expressing human SPPL2a constitutively and a EGFP-labeled TNFα(aa1-76) NTF substrate under a doxycycline-regulated promoter were used for the imaging assays. Cells were seeded at 3000 cells/30 μL/384-well in DMEM/GlutaMax™-I (Invitrogen) supplemented with tetracycline-free 10% FBS (Amimed) and incubated at 37° C., 5% CO2 for 3-4 h. Subsequently, 3.3 μL of inhibitors, prediluted in doxycycline-containing medium for 11-point concentration-response curves, were added to each well using a CyBi well liquid handling device (Cybio AG, Jena, Germany) to result in final inhibitor concentrations ranging from 100 μM to 1 nM (final DMSO concentration 0.9% (v/v)) and 5 μg/mL doxycycline). The cells were incubated with inhibitor at 37° C., 5% CO2 for 24 h. Thereafter cell were fixed in 4% PFA/PBS and in parallel, nuclei were stained with Hoechst (Invitrogen) 1:5000 in PBS for 30 min. The plates were imaged using a Cellomics ArrayScan VTI HCS reader with 10×/0.3NA objective (Thermo Fisher Scientific, USA). Six images per well were acquired. Images for the EGFP signal (Ex395, Em509) and the Hoechst nuclear dye (Ex350, Em425) were acquired simultaneously with image analysis using the “Nuclear Translocation” assay algorithm of the Cellomics ArrayScan software. Nuclei were detected based on the Hoechst staining, the nuclear mask was transferred to the EGFP channel, and a 4 pixel wide cytoplasm ring region was defined around the nucleus. The intensity of the EGFP signal was measured both in the nuclear and in the cytoplasm ring region of each individual cell (in general 800-1000 individual cells were analyzed per well), and the difference of the average nuclear versus average cytoplasmic intensity of the EGFP signal was calculated (“CircRingAvgIntenDiffCh2”=“CircAvgIntenCh2”−“RingAvgIntenCh2”). Additionally the number of cells were acquired (feature termed “ValidCellCount”) and used to calculate cell toxicity (CC50). Percent inhibition was calculated relative to the positive (0.5 μM LY-411,575=100% inhibition) and negative (DMSO=0% inhibition) controls. The IC50 value was calculated from the plot of percentage of inhibition vs inhibitor concentration using nonlinear regression analysis software, e.g., Origin (OriginLab Corp.).

human SPPL2a [2] = target: T1, human SPPL2a; assay: Sppl2a RGA (reporter gene assay) in HEK293 cells; format: cell-based; set-up: expressed in transfected cells; host or cells: HEK293 (transient); settings: NT-TNF-VP16-Gal4 substrate, Gal4-luciferase reporter, 24 h
Source text: Sppl2a RGA (Reporter Gene Assay):
Sppl2a is an intramembrane aspartyl protease with similarities to presenilin, the active subunit of the γ-secretase complex. The assay is based on the coupling of the proteolytic degradation of a membrane bound synthetic substrate (VP16-Gal4 fusion protein with the N-terminal domain of TNF alpha), which migrates to the nucleus upon cleavage, with the Gal4 driven expression of luciferase. Inhibition of Sppl2a results in a reduction of nuclear VP16-Gal4 activator and therefore in a reduction of the production of luciferase. The luciferase dependent-luminescence is plotted against the concentrations of compound to generate a dose response curve, which allows the calculation of the IC50 value.
DNA vectors encoding human Sppl2a, NT-TNF-VP16-Gal4 and a Gal4-luciferase reporter were transiently transfected in HEK293 cells. In a typical experiment 5 μg plasmid for SPPL2a, 10 μg plasmid encoding the reporter Gal4-luciferase and 20 μg plasmid encoding the substrate NT-TF-VP16-Gal4 were mixed together. The DNA mixture was combined with 107 μl FuGENE® (Promega), 735 μl Opti-MEM® (Life Technologies) and incubated for 5 minutes at RT. To this mixture 20 mL of concentrated HEK293 cells were added and thoroughly mixed. The cell suspension was distributed to a white solid 384 well plate. Within 5 hours, 50 nl of compound in DMSO was stamped into the wells via pintool. The plate was incubated for 24 h at 37° C., 5% CO2 in a humidified incubator, before the addition of 25 μl Bright Glo. After incubation at RT for 5 min, the plate was transferred to a luminometer and the luminescence was measured. The IC50 was determined by plotting compound concentration vs. normalized luminescence values.

## CC[C@H](CNC(=O)c1c(C)noc1C(F)(F)F)C(=O)N[C@@H]1C(=O)N2CC3(CC3)CN2C(=O)c2ccccc21 [Example 31, N-((R)-2-(((S)-5,11-Dioxo-10,11-dihydro-1H,3H,5H-spiro[benzo[d]pyr-azolo[1,2-a][1,2]diazepine-2,1′-cyclopropan]-10-yl)carbamoyl)butyl)-3-methyl-5-(trifluoromethyl) isoxazole-4-carboxamide]
Human SPPL2a [1]
  IC50: 33 nM
Human SPPL2a [2]
  IC50: 22 nM

## C[C@H](CC(=O)Nc1cc(-c2ccc(C(F)(F)F)nc2)nn1C)C(=O)N[C@@H]1C(=O)N2CCCN2Cc2ccccc21 [Example 72, (R)-2-Methyl-N^4-(1-methyl-3-(6-(trifluoromethyl)pyridin-3-yl)-1H-pyrazol-5-yl)-N^1-((S)-11-oxo-2,3,10,11-tetrahydro-1H,5H-benzo[d]pyrazolo [1,2-a][1,2]diazepin-10-yl)succinamide]
Human SPPL2a [1]
  IC50: 4 nM
Human SPPL2a [2]
  IC50: 9 nM

## Cc1cncc(-c2cc(NC(=O)C[C@@H](C)C(=O)N[C@@H]3C(=O)N4CCCN4Cc4ccccc43)n(C)n2)c1 [Example 74, (R)-2-Methyl-N^4-(1-methyl-3-(5-methylpyridin-3-yl)-1H-pyrazol-5-yl)-N^1-((S)-11-oxo-2,3,10,11-tetrahydro-1H,5H-benzo[d]pyrazolo [1,2-a][1,2]diazepin-10-yl)succinamide]
Human SPPL2a [1]
  IC50: 4 nM
Human SPPL2a [2]
  IC50: 13 nM

## C[C@H](CC(=O)Nc1cc(-c2ccco2)nn1C1CC1)C(=O)N[C@@H]1C(=O)N2CCCN2Cc2ccccc21 [Example 96, (R)-N^4-(1-Cyclopropyl-3-(furan-2-yl)-1H-pyrazol-5-yl)-2-methyl-N^1-((S)-11-oxo-2,3,10,11-tetrahydro-1H,5H-benzo[d]pyrazolo [1,2-a][1,2]diazepin-10-yl)succinamide]
Human SPPL2a [1]
  IC50: 12 nM
Human SPPL2a [2]
  IC50: 28 nM

## C[C@H](CC(=O)Nc1cc(C(=O)NCCC(F)(F)F)nn1C)C(=O)N[C@@H]1C(=O)N2CCCN2Cc2ccccc21 [Example 84, (R)-2-Methyl-N^4-(1-methyl-3-((3,3,3-trifluoropropyl)carbamoyl)-1H-pyrazol-5-yl)-N^1-((S)-11-oxo-2,3,10,11-tetrahydro-1H,5H-benzo[d]pyrazolo [1,2-a][1,2]diazepin-10-yl)succinamide]
Human SPPL2a [1]
  IC50: 9 nM
Human SPPL2a [2]
  IC50: 40 nM

## CCn1nc(-c2ccc(C(F)(F)F)nc2)cc1NC(=O)C[C@@H](C)C(=O)N[C@@H]1C(=O)N2CCCN2Cc2ccccc21 [Example 83, (R)-N^4-(1-Ethyl-3-(6-(trifluoromethyl)pyridin-3-yl)-1H-pyrazol-5-yl)-2-methyl-N^1-((S)-11-oxo-2,3,10,11-tetrahydro-1H,5H-benzo[d]pyrazolo [1,2-a][1,2]diazepin-10-yl)succinamide]
Human SPPL2a [1]
  IC50: 9 nM
Human SPPL2a [2]
  IC50: 6 nM

## Cc1nn(-c2ccc(C(F)(F)F)nc2)cc1NC(=O)C[C@@H](C)C(=O)N[C@@H]1C(=O)N2CCCN2Cc2ccccc21 [Example 92, (R)-2-Methyl-N^4-(3-methyl-1-(6-(trifluoromethyl)pyridin-3-yl)-1H-pyrazol-4-yl)-N^1-((S)-11-oxo-2,3,10,11-tetrahydro-1H,5H-benzo[d]pyrazolo [1,2-a][1,2]diazepin-10-yl)succinamide]
Human SPPL2a [1]
  IC50: 12 nM
Human SPPL2a [2]
  IC50: 11 nM

## C[C@H](CC(=O)Nc1sc(-c2ccc(C(F)(F)F)nc2)nc1Cl)C(=O)N[C@@H]1C(=O)N2CCCN2Cc2ccccc21 [Example 108, (R)-N^4-(4-Chloro-2-(6-(trifluoromethyl)pyridin-3-yl)thiazol-5-yl)-2-methyl-N^1-((S)-11-oxo-2,3,10,11-tetrahydro-1H,5H-benzo[d]pyrazolo [1,2-a][1,2]diazepin-10-yl)succinamide]
Human SPPL2a [1]
  IC50: 3 nM
Human SPPL2a [2]
  IC50: 3 nM

## Cc1cc(-c2nc(C)c(C(=O)NC[C@H](C(=O)N[C@@H]3C(=O)N4CCCN4C(=O)c4ccccc43)C3CC3)s2)on1 [Example 41, N-((R)-2-Cyclopropyl-3-(((S)-5,11-dioxo-2,3,10,11-tetrahydro-1H,5H-benzo[d]pyrazolo [1,2-a][1,2]diazepin-10-yl)amino)-3-oxopropyl)-4-methyl-2-(3-methylisoxazol-5-yl)thiazole-5-carboxamide]
Human SPPL2a [1]
  IC50: 59 nM
Human SPPL2a [2]
  IC50: 37 nM

## CCCOc1nc(C)c(C(=O)NC[C@@H](CC)C(=O)N[C@@H]2C(=O)N3CCCN3Cc3ccccc32)s1 [Example 30, 4-Methyl-N-((R)-2-(((S)-11-oxo-2,3,10,11-tetrahydro-1H,5H-benzo[d]pyrazolo [1,2-a][1,2]diazepin-10-yl)carbamoyl)butyl)-2-propoxythiazole-5-carboxamide]
Human SPPL2a [1]
  IC50: 29 nM
Human SPPL2a [2]
  IC50: 16 nM

## Cc1nc(Cl)c(C(=O)NC[C@H](C(=O)N[C@@H]2C(=O)N3CCCN3Cc3c(F)cccc32)C2CC2)s1 [Example 55, 4-Chloro-N-((R)-2-cyclopropyl-3-(((S)-6-fluoro-11-oxo-2,3,10,11-tetrahydro-1H,5H-benzo[d]pyrazolo [1,2-a][1,2]diazepin-10-yl)amino)-3-oxopropyl)-2-methylthiazole-5-carboxamide]
Human SPPL2a [1]
  IC50: 163 nM
Human SPPL2a [2]
  IC50: 152 nM

## Cc1cccc(C)c1NC(=O)c1cc(NC(=O)C[C@@H](C)C(=O)N[C@@H]2C(=O)N3CCCN3Cc3ccccc32)n(C)n1 [Example 110]
Human SPPL2a [1]
  IC50: 15 nM
Human SPPL2a [2]
  IC50: 20 nM

## C[C@H](CC(=O)Nc1cc(C(=O)Nc2ccccc2F)nn1C)C(=O)N[C@@H]1C(=O)N2CCCN2Cc2ccccc21 [Example 109, (R)—N^4-(3-((2-fluorophenyl)carbamoyl)-1-methyl-1H-pyrazol-5-yl)-2-methyl-N^1—((S)-11-oxo-2,3,10,11-tetrahydro-1H,5H-benzo[d]pyrazolo[1,2-a][1,2]diazepin-10-yl)succinamide]
Human SPPL2a [1]
  IC50: 2 nM
Human SPPL2a [2]
  IC50: 3 nM

## Cc1cc(F)cc2nc(C[C@@H](C)C(=O)N[C@@H]3C(=O)N4CCCN4Cc4c(F)cccc43)[nH]c12 [Example 118, (R)-N-((S)-6-fluoro-11-oxo-2,3,10,11-tetrahydro-1 H,5H-benzo[d]pyrazolo[1,2-a][1,2]diazepin-10-yl)-3-(5-fluoro-7-methyl-1H-benzo[d]imidazol-2-yl)-2-methylpropanamide]
Human SPPL2a [1]
  IC50: 116 nM
Human SPPL2a [2]
  IC50: 19 nM

## CC[C@H](CNC(=O)c1scnc1Cl)C(=O)N[C@@H]1C(=O)N2CC3(CC3)CN2C(=O)c2ccccc21 [Example 49, 4-Chloro-N-((R)-2-(((S)-5,11-dioxo-10,11-dihydro-1H,3H,5H-spiro [benzo[d]pyr-azolo[1,2-a][1,2]diazepine-2,1″-cyclopropan]-10-yl)carbamoyl)butyl) thiazole-5-carboxamide]
Human SPPL2a [1]
  IC50: 91 nM
Human SPPL2a [2]
  IC50: 89 nM
